# Read-outs that look alike come from different tables or passages of the source.
# What was measured:
# [1] = physical and chemical storage stability of polymorphic forms; conditions: for physically stable, duration: ambient condition
# [2] = pH 5.4
# [3] = 40° C. under 75% relative humidity
SMILES,"conversion to Form III (Hydrate B) [1, 3]","physically stable, duration [1]",aqueous solubility [2],also measured
"CNCc1ccc(-c2[nH]c3cc(F)cc4c3c2CCNC4=O)cc1.O=P(O)(O)O [Form I, phosphate salt of 8-fluoro-2-{4-[(methylamino)methyl]phenyl}-1,3,4,5-tetrahydro-6H-azepino[5,4,3-cd]indol-6-one]",after one week,at least 3 months,2800 µg/mL,–
"CNCc1ccc(-c2[nH]c3cc(F)cc4c3c2CCNC4=O)cc1.O=P(O)(O)O [Form II, phosphate salt of 8-fluoro-2-{4-[(methylamino)methyl]phenyl}-1,3,4,5-tetrahydro-6H-azepino[5,4,3-cd]indol-6-one]",after 1 week,at least 3 months,3000 µg/mL,conversion to Form III (Hydrate B) ([1]; 25° C. under 90% relative humidity): overnight; Solubility (pH 3): 460 µg/mL; Solubility (pH 4): 390 µg/mL; Solubility (pH 5): 370 µg/mL; Solubility (pH 6): 320 µg/mL; Solubility (pH 7): 250 µg/mL; Solubility (pH 8): 190 µg/mL
"CNCc1ccc(-c2[nH]c3cc(F)cc4c3c2CCNC4=O)cc1.O=P(O)(O)O [Form III, phosphate salt of 8-fluoro-2-{4-[(methylamino)methyl]phenyl}-1,3,4,5-tetrahydro-6H-azepino[5,4,3-cd]indol-6-one]",–,–,2700 µg/mL,–
"CNCc1ccc(-c2[nH]c3cc(F)cc4c3c2CCNC4=O)cc1.O=P(O)(O)O [Form IV, phosphate salt of 8-fluoro-2-{4-[(methylamino)methyl]phenyl}-1,3,4,5-tetrahydro-6H-azepino[5,4,3-cd]indol-6-one]",–,–,4500 µg/mL,–
"CNCc1ccc(-c2[nH]c3cc(F)cc4c3c2CCNC4=O)cc1.O=P(O)(O)O [Form V, phosphate salt of 8-fluoro-2-{4-[(methylamino)methyl]phenyl}-1,3,4,5-tetrahydro-6H-azepino[5,4,3-cd]indol-6-one]",–,–,–,"physically and chemically stable, duration ([1]; room temperature): at least 3 months"
